How the values were obtained:
[1] = system: ES-Kir2.1 and iPS-Kir2.1 cell lines; assay: Initiation of cardiomyocyte differentiation (Day 0 medium); type: cell-based, human; conditions: 12 μM CHIR99021 in RPMI/B27-insulin
Experimental: The ES-Kir2.1 and iPS-Kir2.1 cell lines were cultured in feeder-free media and prepared for differentiation as previously described with modifications (see, e.g., Lian et al. (2012) “Robust cardiomyocyte differentiation from human pluripotent stem cells via temporal modulation of canonical Wnt signaling” Proc Natl Acad Sci USA 109: E1848-57; Lian et al. (2013) “Directed cardiomyocyte differentiation from human pluripotent stem cells by modulating Wnt/6-catenin signaling under fully defined conditions” Nature Protocols 8: 162-75, each of which is incorporated herein by reference in its entirety). In particular, five days prior to differentiation (“Differentiation Day −5”), cells were harvested and seeded. Media was removed from the stem cell cultures and the cells were and washed with 1 mL DPBS per well. Next, 1 mL of Versene was added to each well and the cells were incubated at 37° C. for 5 minutes. Cells were transferred to a 50-ml tube, an equal volume of medium was added, and the cells were resuspended by gentle pipetting to singularize the cells. Cells were counted, pelleted, and resuspended in culture medium (e.g., mTeSR1, Stem Flex, etc.) to provide cells at a concentration that is pipetted into 6-well plates at approximately 2 million cells per 6-well plate. […]

[2] = system: IK1-induced ventricular-like SC-CMs; assay: Action potentials under current clamp in paced IK1-induced SC-CMs (di-LQTS model); conditions: for APD10 / APD50 / APD70 / APD90 / RMP: E4031 20 nM, mean SE; for slope of linear regression, EAD take-off potential vs. peak EAD voltage: 100 nM E4031
Experimental: SC-CMs were singularized and plated before cellular electrophysiology experiments on 12-mm poly-d-lysine/laminin or SyntheMax pre-coated coverslips. IK1 was induced by treating singularized cells with doxycycline (2 μM) (Thermo Fisher Scientific) for 48-72 hours prior to cellular electrophysiology analysis. Borosilicate glass pipettes (3-4 MΩ) were used (Model P-97; Sutter Instruments, Novato, Calif.). Whole cell capacitance was calculated by using the time domain technique (20).
AP were measured under current clamp at 32° C. using an Axopatch 200B amplifier and pCLAMP 10 (Molecular Devices, Sunnyvale, Calif.). […] The pipette solution comprised 150 mM K-gluconate, 5 mM EGTA, 10 mM HEPES, and 5 mM MgATP (pH 7.2, KOH). Myocytes were paced at 0.5, 1, 2, and 3 Hz with a depolarizing pulse from a programmable digital stimulator (D55000; WPI, Sarasota, Fla.). AP properties including AP amplitude; resting membrane potential; AP duration at 10% (APD10), 50% (APD50), 70% (APD70), and 90% (APD90) of repolarization; and maximum upstroke velocity (dV/dtmax) were measured (pCLAMP 10; Matlab 6.0, Natick, Mass.). […] Myocytes were paced at 0.5 and 1 Hz. […] AP properties identified above were re-measured.

[3] = 0.5 Hz pacing, E4031 20 nM and 100 nM, ATX-II 30 nM
[4] = drug vs baseline, E4031, ATX-II 30 nM
[5] = 20 nM E4031, 0.5 Hz pacing, p<0.01

Molecule	cell killing at initiation of differentiation [1]	AP prolongation (APD) compared to control [2, 3]	induction of early afterdepolarizations (EADs) [2, 3]	APD10 ([2]; 0.5 Hz pacing, ATX-II 30 nM) [ms]	APD50 ([2]; 0.5 Hz pacing, ATX-II 30 nM) [ms]	APD70 ([2]; 0.5 Hz pacing, ATX-II 30 nM) [ms]	APD90 ([2]; 0.5 Hz pacing, ATX-II 30 nM) [ms]	RMP ([2]; 0.5 Hz pacing, ATX-II 30 nM) [mV]	effect on RMP [2, 4]	effect on dV/dt max [2, 4]	effect on APD10 compared with control ([2]; 20 nM E4031, 0.5 Hz pacing)	effect on APD50 compared with control ([2]; 20 nM E4031, 0.5 Hz pacing)	effect on APD70 compared with control [2, 5]	effect on APD90 compared with control [2, 5]	slope of linear regression, EAD take-off potential vs. peak EAD voltage ([2]; FIG. 4C)	slope of linear regression, EAD take-off potential vs. peak EAD voltage ([2]; FIG. 4D, second independent experiment)
Cc1c[nH]c(-c2cnc(NCCNc3ccc(C#N)cn3)nc2-c2ccc(Cl)cc2Cl)n1 [CHIR99021]	kills all or most of the cells	–	–	–	–	–	–	–	–	–	–	–	–	–	–	–
ATX-II: late sodium current agonist (Alamone Labs); late INa enhancing drug (delayed channel inactivation)	–	markedly increased	did not occur	45.2 ± 25.0	869.4 ± 111.7	1025.6 ± 107.4	1056.9 ± 106.5	−76.2 ± 3.65	no difference	no difference	–	–	–	–	–	–
Cc1cccc(CCN2CCC(C(=O)c3ccc(NS(C)(=O)=O)cc3)CC2)n1 [E4031]	–	dose-dependent AP prolongation	–	131.1 ± 53.4	633.8 ± 153.2	767.5 ± 164.8	802.4 ± 172.0	−70.6 ± 4.11	remains normally polarized and stable	–	No significant effect	No significant effect	significantly prolongs	significantly prolongs	−2.6±0.1	−1.68±0.09

— US20190376039A1, “CELLS WITH IMPROVED INWARD RECTIFIER CURRENT” (priority 2018, published 2019)
